Data taken from patent publication US12208080B2, “Compositions and methods for modulation of extracellular vesicle release and treatment of neurological disorders” (GEORGE MASON RESEARCH FOUNDATION, INC., priority 2018, dated 2025).

Test system: HIV-1 infected primary macrophages
Assay: RT-qPCR of EV-associated viral RNA from HIV-1 infected primary macrophages
Assay type: cell-based
Details: 1, 5, 10 uM
Experimental: FIGS. 11A-11B are graphs showing CBD lowers viral RNAs in EVs released from HIV-1 infected primary macrophages. Primary PBMCs were purchased (Precision For Medicine, Frederick, Md.) and cultured in vitro first with PMA/GM-CSF for 3 days to obtain macrophages, and were then infected with HIV-1 89.6 strain (MOI.1.0) for 12 days. The macrophages were treated with PMA and GM-CSF during the infection period (added every 3 days into the fresh media). On day 12, all cells were treated with cART (4 antivirals) and kept in culture for another 3 days. On day 15, media was removed and CBD was added for 5 days (1, 5, 10 μM; at 0 and 48 hours). Supernatants were then isolated and exosomes were enriched using NT80/82 beads overnight at 4° C. […]
To examine whether the same trend could be observed in a primary cell model, three independent HIV-1 infected primary macrophage cell cultures were treated with a titration of CBD (1, 5, and 10 uM). EVs were enriched from the extracellular supernatant using NT80/82 beads and analyzed for HIV-1 TAR and env (FIG. 11). […] To apply these findings to in vivo HIV-1 infection, total EVs were enriched from plasma samples from 15 individuals; 5 healthy donors, 5 HIV-1 positive donors, and 5 HIV-1 positive donors who used Cannabis, were trapped using NT80/82 particles and analyzed via Western blot for the presence of HIV-1 Nef protein.

In the case of C=C(C)[C@@H]1CCC(C)=C[C@H]1c1c(O)cc(CCCCC)cc1O [CBD, 2-[1R-3-methyl-6R-(1-methylethenyl)-2-cyclohexen-1-yl]-5-pentyl-1,3-benzenediol], the “TAR RNA within EVs” value (three primary macrophage cultures, FIG. 11A) is reported as “statistically significant decrease” and the “env RNA in secreted EVs” value (two out of three infected primary macrophages, FIG. 11B) is reported as “statistically significant decreasing trend”.
